Data taken from patent publication US20240116985A1, “STAPLED PEPTIDES AND METHODS THEREOF” (priority 2020, published 2024).

Target: T1, full-length beta-Catenin (Uniprot ID P35222) (Homo sapiens, UniProt P35222)
T1 construct: 10 nM full-length beta-Catenin (Uniprot ID P35222)
T1 sequence (P35222 1-781): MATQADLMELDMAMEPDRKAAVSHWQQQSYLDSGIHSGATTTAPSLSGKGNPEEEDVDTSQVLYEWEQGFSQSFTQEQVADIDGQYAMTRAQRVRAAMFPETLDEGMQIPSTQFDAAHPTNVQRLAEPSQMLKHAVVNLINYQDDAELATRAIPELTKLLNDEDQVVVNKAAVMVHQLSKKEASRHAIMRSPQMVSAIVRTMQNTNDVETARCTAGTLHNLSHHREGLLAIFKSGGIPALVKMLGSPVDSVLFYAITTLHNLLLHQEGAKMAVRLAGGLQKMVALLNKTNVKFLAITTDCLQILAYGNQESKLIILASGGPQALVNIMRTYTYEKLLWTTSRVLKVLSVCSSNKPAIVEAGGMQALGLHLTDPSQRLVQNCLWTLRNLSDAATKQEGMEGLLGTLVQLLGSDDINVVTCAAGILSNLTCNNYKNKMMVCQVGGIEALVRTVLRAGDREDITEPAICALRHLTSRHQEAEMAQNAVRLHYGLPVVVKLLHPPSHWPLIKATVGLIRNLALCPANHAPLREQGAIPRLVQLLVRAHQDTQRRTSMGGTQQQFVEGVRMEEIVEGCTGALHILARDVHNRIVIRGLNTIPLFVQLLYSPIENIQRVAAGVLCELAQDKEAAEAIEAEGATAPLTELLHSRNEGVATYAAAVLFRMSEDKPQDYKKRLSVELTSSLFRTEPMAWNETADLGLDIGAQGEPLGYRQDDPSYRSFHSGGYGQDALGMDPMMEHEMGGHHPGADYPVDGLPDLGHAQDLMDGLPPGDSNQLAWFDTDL
Experiment: Fluorescence polarization IC50 (beta-catenin / 5FAM-TCF4 10-53 competition)
Format: binding
Conditions: fluorescence polarization; read-out: beta-Catenin FP IC50

| IC50 [nM] | Structure (SMILES) |
| --- | --- |
| 7 | CC(=O)N1CCC[C@]12CC=CCCCC1(CCCC=CCCCOC(=O)N3CC[C@@](C(=O)N[C@@H](Cc4ccsc4)C(=O)N[C@@H](Cc4csc5ccccc45)C(=O)N[C@@H](CCC(N)=O)C(N)=O)(C3)NC(=O)[C@H](CC(C)C)NC(=O)[C@H](Cc3ccccc3)NC(=O)[C@H](C)NC(=O)[C@H](CCCN3CCOCC3)NC(=O)[C@H](CC(=O)O)NC(=O)[C@H](CC(=O)O)NC1=O)NC(=O)[C@H](CC(C)(C)C)NC(=O)[C@H](CC(=O)O)NC2=O (stereo partly drawn) [I-1481, Ac-PL3-Asp-Npg-B5-Asp-Asp-MorphNva-Ala-Phe-Leu-PyrS2-3Thi-BztA-Gln-NH2] |
| 226 | CC(=O)N1CCC[C@]12CC=CCCCC1(CCCC=CCCCOC(=O)N3CC[C@@](C(=O)N[C@@H](Cc4ccccc4)C(=O)N[C@@H](Cc4csc5ccccc45)C(=O)N[C@@H](CCC(N)=O)C(N)=O)(C3)NC(=O)[C@H](CC(C)C)NC(=O)[C@H](Cc3ccc(-c4cccnc4)cc3)NC(=O)[C@H](C)NC(=O)[C@H](C)NC(=O)[C@H](CC(=O)O)NC(=O)[C@H](CC(=O)O)NC1=O)NC(=O)[C@H](CC(C)(C)C)NC(=O)[C@H](CC(=O)O)NC2=O (stereo partly drawn) [I-1490, Ac-PL3-Asp-Npg-B5-Asp-Asp-Ala-Ala-[3Py]4SF-Leu-PyrS2-Phe-BztA-Gln-NH2] |
| 34 | CC(=O)N1CCC[C@]12CC=CCCCC1(CCCC=CCCCCCC[C@@](C)(C(=O)N[C@@H](Cc3ccccc3Cl)C(=O)N[C@@H](Cc3csc4ccccc34)C(=O)N[C@H](CO)[C@@H](C)O)NC(=O)[C@H](CCO)NC(=O)[C@H](Cc3ccccc3)NC(=O)[C@H](C)NC(=O)[C@H](C)NC(=O)[C@H](CC(=O)O)NC(=O)[C@H](CC(=O)O)NC1=O)NC(=O)[C@H](CC(C)(C)C)NC(=O)[C@H](CC(=O)O)NC2=O (stereo partly drawn) [I-1491, Ac-PL3-Asp-Npg-B5-Asp-Asp-Ala-Ala-Phe-Hse-S8-2C1F-BztA-Thro1] |
| 48 | CC(=O)N1CCC[C@]12CC=CCCCC1(CCCC=CCCCOC(=O)N3CC[C@@](C(=O)N[C@@H](Cc4ccsc4)C(=O)N[C@@H](Cc4csc5ccccc45)C(=O)N[C@@H](Cc4c[nH]nn4)C(N)=O)(C3)NC(=O)[C@H](CC(C)C)NC(=O)[C@H](Cc3ccccc3)NC(=O)[C@H](C)NC(=O)[C@H](C)NC(=O)[C@H](CC(=O)O)NC(=O)[C@H](CC(=O)O)NC1=O)NC(=O)[C@H](CC(C)(C)C)NC(=O)[C@H](CC(=O)O)NC2=O (stereo partly drawn) [I-1498, Ac-PL3-Asp-Npg-B5-Asp-Asp-Ala-Ala-Phe-Leu-PyrS2-3Thi-BztA-4TriA-NH2] |
| 38 | CC(=O)N1CCC[C@]12CC=CCCCC1(CCCC=CCCCOC(=O)N3CC[C@@](C(=O)N[C@@H](Cc4ccsc4)C(=O)N[C@@H](Cc4csc5ccccc45)C(=O)N[C@@H](CCC(N)=O)C(N)=O)(C3)NC(=O)[C@H](CC(C)C)NC(=O)[C@H](Cc3ccccc3)NC(=O)[C@H](CCCN3CCN(C)CC3)NC(=O)[C@H](C)NC(=O)[C@H](CC(=O)O)NC(=O)[C@H](CC(=O)O)NC1=O)NC(=O)[C@H](CC(C)(C)C)NC(=O)[C@H](CC(=O)O)NC2=O (stereo partly drawn) [I-1503, Ac-PL3-Asp-Npg-B5-Asp-Asp-Ala-MePpzNva-Phe-Leu-PyrS2-3Thi-BztA-Gln-NH2] |
| 89 | CC(=O)N1CCC[C@]12CC=CCCCC1(CCCC=CCCCOC(=O)N3CC[C@@](C(=O)N[C@@H](Cc4ccsc4)C(=O)N[C@@H](Cc4csc5ccccc45)C(=O)N[C@@H](CCC(N)=O)C(N)=O)(C3)NC(=O)[C@H](CC(C)C)NC(=O)[C@H](Cc3ccccc3)NC(=O)[C@H](CCN3CCN(C)CC3)NC(=O)[C@H](C)NC(=O)[C@H](CC(=O)O)NC(=O)[C@H](CC(=O)O)NC1=O)NC(=O)[C@H](CC(C)(C)C)NC(=O)[C@H](CC(=O)O)NC2=O (stereo partly drawn) [I-1506, Ac-PL3-Asp-Npg-B5-Asp-Asp-Ala-MePpzAbu-Phe-Leu-PyrS2-3Thi-BztA-Gln-NH2] |
| 87 | CC(=O)N1CCC[C@]12CC=CCCCC1(CCCC=CCCCOC(=O)N3CC[C@@](C(=O)N[C@@H](Cc4ccsc4)C(=O)N[C@@H](Cc4csc5ccccc45)C(=O)N[C@@H](CCC(N)=O)C(N)=O)(C3)NC(=O)[C@H](CC(C)C)NC(=O)[C@H](Cc3ccccc3)NC(=O)[C@H](CC(=O)N3CCN(C)CC3)NC(=O)[C@H](C)NC(=O)[C@H](CC(=O)O)NC(=O)[C@H](CC(=O)O)NC1=O)NC(=O)[C@H](CC(C)(C)C)NC(=O)[C@H](CC(=O)O)NC2=O (stereo partly drawn) [I-1508, Ac-PL3-Asp-Npg-B5-Asp-Asp-Ala-MePpzAsn-Phe-Leu-PyrS2-3Thi-BztA-Gln-NH2] |
| 11 | CC(=O)N1CCC[C@]12CC=CCCCC1(CCCC=CCCCOC(=O)N3CC[C@@](C(=O)N[C@@H](Cc4ccsc4)C(=O)N[C@@H](Cc4csc5ccccc45)C(=O)N[C@@H](CCC(N)=O)C(N)=O)(C3)NC(=O)[C@H](CC(C)C)NC(=O)[C@H](Cc3ccccc3)NC(=O)[C@H](C)NC(=O)[C@H](C)NC(=O)[C@H](CC(=O)O)NC(=O)[C@H](CC(=O)O)NC1=O)NC(=O)[C@H](Cc1ccccc1)NC(=O)[C@H](CC(=O)O)NC2=O (stereo partly drawn) [I-1509, Ac-PL3-Asp-Phe-B5-Asp-Asp-Ala-Ala-Phe-Leu-PyrS2-3Thi-BztA-Gln-NH2] |
| 27 | CC(=O)N1CCC[C@]12CC=CCCCC1(CCCC=CCCCOC(=O)N3CC[C@@](C(=O)N[C@@H](Cc4ccsc4)C(=O)N[C@@H](Cc4csc5ccccc45)C(=O)N[C@@H](CCO)C(N)=O)(C3)NC(=O)[C@H](CC(C)C)NC(=O)[C@H](Cc3ccccc3)NC(=O)[C@H](C)NC(=O)[C@H](C)NC(=O)[C@H](CC(=O)O)NC(=O)[C@H](CC(=O)O)NC1=O)NC(=O)[C@H](CO)NC(=O)[C@H](CC(=O)O)NC2=O (stereo partly drawn) [I-1514, Ac-PL3-Asp-Ser-B5-Asp-Asp-Ala-Ala-Phe-Leu-PyrS2-3Thi-BztA-Hse-NH2] |
| 23 | CC(=O)N1CCC[C@]12CC=CCCCC1(CCCC=CCCCOC(=O)N3CC[C@@](C(=O)N[C@@H](Cc4ccsc4)C(=O)N[C@@H](Cc4csc5ccccc45)C(=O)N[C@@H](CCO)C(N)=O)(C3)NC(=O)[C@H](CC(C)C)NC(=O)[C@H](Cc3ccccc3)NC(=O)[C@H](C)NC(=O)[C@H](C)NC(=O)[C@H](CC(=O)O)NC(=O)[C@H](CC(=O)O)NC1=O)NC(=O)[C@H](CC(N)=O)NC(=O)[C@H](CC(=O)O)NC2=O (stereo partly drawn) [I-1518, Ac-PL3-Asp-Asn-B5-Asp-Asp-Ala-Ala-Phe-Leu-PyrS2-3Thi-BztA-Hse-NH2] |
| 42 | CC(=O)N1CCC[C@]12CC=CCCCC1(CCCC=CCCCCCC[C@@](C)(C(=O)N[C@@H](Cc3ccccc3)C(=O)N[C@@H](Cc3csc4ccccc34)C(=O)N[C@@H](CCC(N)=O)C(N)=O)NC(=O)[C@H](CC(C)C)NC(=O)[C@H](Cc3ccccc3)NC(=O)[C@H](C)NC(=O)[C@H](C)NC(=O)[C@H](CCC(=O)O)NC(=O)[C@H](CC(=O)O)NC1=O)NC(=O)[C@H](CCC(C)C)NC(=O)[C@H](CC(=O)O)NC2=O (stereo partly drawn) [I-1536, Ac-PL3-Asp-Hleu-B5-Asp-Glu-Ala-Ala-Phe-Leu-S8-Phe-BztA-Gln-NH2] |
| 17 | CC(=O)N1CCC[C@]12CC=CCCCC1(CCCC=CCCCCCC[C@@](C)(C(=O)N[C@@H](Cc3ccccc3)C(=O)N[C@@H](Cc3csc4ccccc34)C(=O)N[C@@H](CCC(N)=O)C(N)=O)NC(=O)[C@H](CCC(N)=O)NC(=O)[C@H](Cc3ccccc3)NC(=O)[C@H](C)NC(=O)[C@H](C)NC(=O)[C@H](CCC(=O)O)NC(=O)[C@H](CC(=O)O)NC1=O)NC(=O)[C@H](CCC(N)=O)NC(=O)[C@H](CC(=O)O)NC2=O (stereo partly drawn) [I-1540, Ac-PL3-Asp-Gln-B5-Asp-Glu-Ala-Ala-Phe-Gln-S8-Phe-BztA-Gln-NH2] |
| 39 | CC(=O)N1CCC[C@]12CC=CCCCC1(CCCC=CCCCCCC[C@@](C)(C(=O)N[C@@H](Cc3ccccc3)C(=O)N[C@@H](Cc3csc4ccccc34)C(=O)N[C@@H](CCC(N)=O)C(N)=O)NC(=O)[C@H](CC(C)C)NC(=O)[C@H](Cc3ccccc3)NC(=O)[C@H](C)NC(=O)[C@H](C)NC(=O)[C@H](CCC(=O)O)NC(=O)[C@H](CC(=O)O)NC1=O)NC(=O)[C@H](CCC(N)=O)NC(=O)[C@H](CC(=O)O)NC2=O (stereo partly drawn) [I-1541, Ac-PL3-Asp-Gln-B5-Asp-Glu-Ala-Ala-Phe-Leu-S8-Phe-BztA-Gln-NH2] |
| 678 | CC(=O)N1CCC[C@]12CC=CCCCC1(CCCC=CCCCOC(=O)N3CC[C@@](C(=O)N[C@@H](Cc4ccsc4)C(=O)N[C@@H](Cc4csc5ccccc45)C(=O)N[C@@H](CCC(N)=O)C(N)=O)(C3)NC(=O)[C@H](CC(N)=O)NC(=O)[C@H](Cc3ccccc3)NC(=O)[C@H](C)NC(=O)[C@H](C)NC(=O)[C@H](CCC(N)=O)NC(=O)[C@H](CCC(N)=O)NC1=O)NC(=O)[C@H](CC(C)(C)C)NC(=O)[C@H](CC(=O)O)NC2=O (stereo partly drawn) [I-1558, Ac-PL3-Asp-Npg-B5-Gln-Gln-Ala-Ala-Phe-Asn-PyrS2-3Thi-BztA-Gln-NH2] |
| 9680 | CC(=O)N1CCC[C@]12CC=CCCCC1(CCCC=CCCCOC(=O)N3CC[C@@](C(=O)N[C@@H](Cc4ccsc4)C(=O)N[C@@H](Cc4csc5ccccc45)C(=O)N[C@@H](CCC(N)=O)C(N)=O)(C3)NC(=O)[C@H](CC(N)=O)NC(=O)[C@H](Cc3ccccc3)NC(=O)[C@H](C)NC(=O)[C@H](C)NC(=O)[C@H](CC(N)=O)NC(=O)[C@H]([C@@H](C)O)NC1=O)NC(=O)[C@H](CC(C)(C)C)NC(=O)[C@H](CC(=O)O)NC2=O (stereo partly drawn) [I-1559, Ac-PL3-Asp-Npg-B5-Thr-Asn-Ala-Ala-Phe-Asn-PyrS2-3Thi-BztA-Gln-NH2] |
